Laboratory results as given in the supplement of paper PMC4862054.

Tested on: SK-BR-3
Assay: normalised response (% of control), CellTiter-Glo; higher = more viable cells (100 = DMSO, 0 = benzethonium chloride kill control)
Conditions: incubation time: 72 h
How it was run: (§1)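 Breast cancer cell lines were exposed for 72 h in 384-well plates to compound at 5 concentrations, 10-fold apart, covering a 10,000-fold range fixed for each compound. Plates were read for CellTox Green fluorescence and CellTiter-Glo luminescence and normalised to 0.1 % DMSO (100) and a positive kill control (0). Each value is the normalised signal at one concentration of the series.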

Compared with `Cc1cn(-c2cc(NC(=O)c3ccc(C)c(Nc4nccc(-c5cccnc5)n4)c3)cc(C(F)(F)F)c2)cn1` [Nilotinib] (100 nM), `CC[C@H](CO)Nc1nc(NCc2ccccc2)c2ncn(C(C)C)c2n1` [Seliciclib] (100 nM) is higher in normalised response: 96.3% for the first, 106% for the second.

In the case of `C=CCN(/C=C1/C(=O)O[C@H](COC)[C@@]2(C)C1=C(O)C(=O)C1=C2[C@H](OC(C)=O)C[C@]2(C)C(=O)CC[C@@H]12)CC=C` [Sonolisib] (100 nM), the normalised response is reported as 107%.

Tested on: CAL-120
Assay: normalised response (% of control), CellTox Green; higher = less cell death (100 = DMSO, 0 = benzethonium chloride kill control)
Conditions: incubation time: 72 h
How it was run: as §1

First: C/C(=C\c1csc(C)n1)[C@@H]1C[C@@H]2O[C@]2(C)CCC[C@H](C)[C@H](O)[C@@H](C)C(=O)C(C)(C)[C@@H](O)CC(=O)N1 [Ixabepilone] (10 nM)
Second: C=CCN(/C=C1/C(=O)O[C@H](COC)[C@@]2(C)C1=C(O)C(=O)C1=C2[C@H](OC(C)=O)C[C@]2(C)C(=O)CC[C@@H]12)CC=C [Sonolisib] (100 nM)
The normalised response of the first is higher: 102% for the first, 101% for the second.

Compared with `CN(C)C(=N)NC(=N)N` [Metformin] (1000 nM), `CN(Cc1cnc2nc(N)nc(N)c2n1)c1ccc(C(=O)N[C@@H](CCC(=O)O)C(=O)O)cc1` [Methotrexate] (500 nM) is higher in normalised response: 96.5% for the first, 100% for the second.

First: Cc1cn(-c2cc(NC(=O)c3ccc(C)c(Nc4nccc(-c5cccnc5)n4)c3)cc(C(F)(F)F)c2)cn1 [Nilotinib] (100 nM)
Second: CC[C@H](CO)Nc1nc(NCc2ccccc2)c2ncn(C(C)C)c2n1 [Seliciclib] (100 nM)
The normalised response of the first is lower: 85.9% for the first, 98.4% for the second.

Tested on: DU-4475
Assay: as above
Conditions: incubation time: 72 h
How it was run: as §1

Going from `C/C(=C\c1csc(C)n1)[C@@H]1C[C@@H]2O[C@]2(C)CCC[C@H](C)[C@H](O)[C@@H](C)C(=O)C(C)(C)[C@@H](O)CC(=O)N1` [Ixabepilone] (10 nM) to `C=CCN(/C=C1/C(=O)O[C@H](COC)[C@@]2(C)C1=C(O)C(=O)C1=C2[C@H](OC(C)=O)C[C@]2(C)C(=O)CC[C@@H]12)CC=C` [Sonolisib] (100 nM), the normalised response rises from 104% to 106%.

Compared with `CN(C)C(=N)NC(=N)N` [Metformin] (1000 nM), `CN(Cc1cnc2nc(N)nc(N)c2n1)c1ccc(C(=O)N[C@@H](CCC(=O)O)C(=O)O)cc1` [Methotrexate] (500 nM) is higher in normalised response: 91.6% for the first, 105% for the second.

Going from `Cc1cn(-c2cc(NC(=O)c3ccc(C)c(Nc4nccc(-c5cccnc5)n4)c3)cc(C(F)(F)F)c2)cn1` [Nilotinib] (100 nM) to `CC[C@H](CO)Nc1nc(NCc2ccccc2)c2ncn(C(C)C)c2n1` [Seliciclib] (100 nM), the normalised response falls from 102% to 101%.

Tested on: HCC1143
Assay: as above
Conditions: incubation time: 72 h
How it was run: as §1

Compared with `C/C(=C\c1csc(C)n1)[C@@H]1C[C@@H]2O[C@]2(C)CCC[C@H](C)[C@H](O)[C@@H](C)C(=O)C(C)(C)[C@@H](O)CC(=O)N1` [Ixabepilone] (10 nM), `C=CCN(/C=C1/C(=O)O[C@H](COC)[C@@]2(C)C1=C(O)C(=O)C1=C2[C@H](OC(C)=O)C[C@]2(C)C(=O)CC[C@@H]12)CC=C` [Sonolisib] (100 nM) is higher in normalised response: 80.8% for the first, 117% for the second.

First: CN(C)C(=N)NC(=N)N [Metformin] (1000 nM)
Second: CN(Cc1cnc2nc(N)nc(N)c2n1)c1ccc(C(=O)N[C@@H](CCC(=O)O)C(=O)O)cc1 [Methotrexate] (500 nM)
The normalised response of the first is lower: 85.4% for the first, 114% for the second.

First: Cc1cn(-c2cc(NC(=O)c3ccc(C)c(Nc4nccc(-c5cccnc5)n4)c3)cc(C(F)(F)F)c2)cn1 [Nilotinib] (100 nM)
Second: CC[C@H](CO)Nc1nc(NCc2ccccc2)c2ncn(C(C)C)c2n1 [Seliciclib] (100 nM)
The normalised response of the first is higher: 109% for the first, 82.7% for the second.

Tested on: MDA-MB-436
Assay: as above
Conditions: incubation time: 72 h
How it was run: as §1

Compared with `C/C(=C\c1csc(C)n1)[C@@H]1C[C@@H]2O[C@]2(C)CCC[C@H](C)[C@H](O)[C@@H](C)C(=O)C(C)(C)[C@@H](O)CC(=O)N1` [Ixabepilone] (10 nM), `C=CCN(/C=C1/C(=O)O[C@H](COC)[C@@]2(C)C1=C(O)C(=O)C1=C2[C@H](OC(C)=O)C[C@]2(C)C(=O)CC[C@@H]12)CC=C` [Sonolisib] (100 nM) is higher in normalised response: 86.6% for the first, 107% for the second.

Going from `CN(C)C(=N)NC(=N)N` [Metformin] (1000 nM) to `CN(Cc1cnc2nc(N)nc(N)c2n1)c1ccc(C(=O)N[C@@H](CCC(=O)O)C(=O)O)cc1` [Methotrexate] (500 nM), the normalised response rises from 71.8% to 105%.

Compared with `Cc1cn(-c2cc(NC(=O)c3ccc(C)c(Nc4nccc(-c5cccnc5)n4)c3)cc(C(F)(F)F)c2)cn1` [Nilotinib] (100 nM), `CC[C@H](CO)Nc1nc(NCc2ccccc2)c2ncn(C(C)C)c2n1` [Seliciclib] (100 nM) is lower in normalised response: 103% for the first, 61.4% for the second.

Tested on: BT-549
Assay: as above
Conditions: incubation time: 72 h
How it was run: as §1

Compared with `C/C(=C\c1csc(C)n1)[C@@H]1C[C@@H]2O[C@]2(C)CCC[C@H](C)[C@H](O)[C@@H](C)C(=O)C(C)(C)[C@@H](O)CC(=O)N1` [Ixabepilone] (10 nM), `C=CCN(/C=C1/C(=O)O[C@H](COC)[C@@]2(C)C1=C(O)C(=O)C1=C2[C@H](OC(C)=O)C[C@]2(C)C(=O)CC[C@@H]12)CC=C` [Sonolisib] (100 nM) is higher in normalised response: 82.4% for the first, 108% for the second.

Going from `CN(C)C(=N)NC(=N)N` [Metformin] (1000 nM) to `CN(Cc1cnc2nc(N)nc(N)c2n1)c1ccc(C(=O)N[C@@H](CCC(=O)O)C(=O)O)cc1` [Methotrexate] (500 nM), the normalised response rises from 70.4% to 99.2%.

Going from `Cc1cn(-c2cc(NC(=O)c3ccc(C)c(Nc4nccc(-c5cccnc5)n4)c3)cc(C(F)(F)F)c2)cn1` [Nilotinib] (100 nM) to `CC[C@H](CO)Nc1nc(NCc2ccccc2)c2ncn(C(C)C)c2n1` [Seliciclib] (100 nM), the normalised response rises from 97.5% to 102%.

Tested on: MFM-223
Assay: as above
Conditions: incubation time: 72 h
How it was run: as §1

Going from `C/C(=C\c1csc(C)n1)[C@@H]1C[C@@H]2O[C@]2(C)CCC[C@H](C)[C@H](O)[C@@H](C)C(=O)C(C)(C)[C@@H](O)CC(=O)N1` [Ixabepilone] (10 nM) to `C=CCN(/C=C1/C(=O)O[C@H](COC)[C@@]2(C)C1=C(O)C(=O)C1=C2[C@H](OC(C)=O)C[C@]2(C)C(=O)CC[C@@H]12)CC=C` [Sonolisib] (100 nM), the normalised response rises from 95.7% to 109%.

`CN(C)C(=N)NC(=N)N` [Metformin] (1000 nM) and `CN(Cc1cnc2nc(N)nc(N)c2n1)c1ccc(C(=O)N[C@@H](CCC(=O)O)C(=O)O)cc1` [Methotrexate] (500 nM) are the same in normalised response: 101% for the first, 101% for the second.

Compared with `Cc1cn(-c2cc(NC(=O)c3ccc(C)c(Nc4nccc(-c5cccnc5)n4)c3)cc(C(F)(F)F)c2)cn1` [Nilotinib] (100 nM), `CC[C@H](CO)Nc1nc(NCc2ccccc2)c2ncn(C(C)C)c2n1` [Seliciclib] (100 nM) is higher in normalised response: 61.4% for the first, 107% for the second.

Tested on: Hs578T
Assay: as above
Conditions: incubation time: 72 h
How it was run: as §1

Compared with `C/C(=C\c1csc(C)n1)[C@@H]1C[C@@H]2O[C@]2(C)CCC[C@H](C)[C@H](O)[C@@H](C)C(=O)C(C)(C)[C@@H](O)CC(=O)N1` [Ixabepilone] (10 nM), `C=CCN(/C=C1/C(=O)O[C@H](COC)[C@@]2(C)C1=C(O)C(=O)C1=C2[C@H](OC(C)=O)C[C@]2(C)C(=O)CC[C@@H]12)CC=C` [Sonolisib] (100 nM) is lower in normalised response: 84% for the first, 73.7% for the second.

Compared with `CN(C)C(=N)NC(=N)N` [Metformin] (1000 nM), `CN(Cc1cnc2nc(N)nc(N)c2n1)c1ccc(C(=O)N[C@@H](CCC(=O)O)C(=O)O)cc1` [Methotrexate] (500 nM) is lower in normalised response: 105% for the first, 87.8% for the second.

Compared with `Cc1cn(-c2cc(NC(=O)c3ccc(C)c(Nc4nccc(-c5cccnc5)n4)c3)cc(C(F)(F)F)c2)cn1` [Nilotinib] (100 nM), `CC[C@H](CO)Nc1nc(NCc2ccccc2)c2ncn(C(C)C)c2n1` [Seliciclib] (100 nM) is higher in normalised response: 85.3% for the first, 100% for the second.

Tested on: BT-474
Assay: as above
Conditions: incubation time: 72 h
How it was run: as §1

Compared with `C/C(=C\c1csc(C)n1)[C@@H]1C[C@@H]2O[C@]2(C)CCC[C@H](C)[C@H](O)[C@@H](C)C(=O)C(C)(C)[C@@H](O)CC(=O)N1` [Ixabepilone] (10 nM), `C=CCN(/C=C1/C(=O)O[C@H](COC)[C@@]2(C)C1=C(O)C(=O)C1=C2[C@H](OC(C)=O)C[C@]2(C)C(=O)CC[C@@H]12)CC=C` [Sonolisib] (100 nM) is lower in normalised response: 98.7% for the first, 96.5% for the second.

Going from `CN(C)C(=N)NC(=N)N` [Metformin] (1000 nM) to `CN(Cc1cnc2nc(N)nc(N)c2n1)c1ccc(C(=O)N[C@@H](CCC(=O)O)C(=O)O)cc1` [Methotrexate] (500 nM), the normalised response rises from 92% to 102%.

Going from `Cc1cn(-c2cc(NC(=O)c3ccc(C)c(Nc4nccc(-c5cccnc5)n4)c3)cc(C(F)(F)F)c2)cn1` [Nilotinib] (100 nM) to `CC[C@H](CO)Nc1nc(NCc2ccccc2)c2ncn(C(C)C)c2n1` [Seliciclib] (100 nM), the normalised response falls from 102% to 97.1%.

Tested on: CAL-85-1
Assay: as above
Conditions: incubation time: 72 h
How it was run: as §1

First: C/C(=C\c1csc(C)n1)[C@@H]1C[C@@H]2O[C@]2(C)CCC[C@H](C)[C@H](O)[C@@H](C)C(=O)C(C)(C)[C@@H](O)CC(=O)N1 [Ixabepilone] (10 nM)
Second: CN(Cc1cnc2nc(N)nc(N)c2n1)c1ccc(C(=O)N[C@@H](CCC(=O)O)C(=O)O)cc1 [Methotrexate] (500 nM)
The normalised response of the first is higher: 99% for the first, 98.4% for the second.

Going from `CN(C)C(=N)NC(=N)N` [Metformin] (1000 nM) to `Cc1cn(-c2cc(NC(=O)c3ccc(C)c(Nc4nccc(-c5cccnc5)n4)c3)cc(C(F)(F)F)c2)cn1` [Nilotinib] (100 nM), the normalised response rises from 97.9% to 105%.
